Where no end group is shown, it is not given here.

The source of these data is patent US20100112042A1, “Processes and Compositions for Liposomal and Efficient Delivery of Gene Silencing Therapeutics” (MDRNA, INC., priority 2008, published 2010).

Assay [1] relates to dsRNA. The assay is described as follows: SYBR-GOLD Dye Binding Assay (peptide binding to RNAi-inducing agent). Particulars: FIG. 6; dsRNA 10 μg/ml, 10 mM hepes/5% dextrose pH 7.4. On the procedure:
The relative strength of the binding of a cationic peptide to an RNAi-inducing agent was measured with a dye binding assay.
The RNAi-inducing agent was prepared at 7.8 μl in 10 ml to make a 20 μg/ml stock, then 75 μl/well. A SYBR gold dilution was prepared at 3.75 μl in 15 ml for 1:4000 dilution for a 2.5× stock.
Peptides were dissolved in Hepes buffer with 5% dextrose and diluted. Peptides were further diluted so that 75 μl could be added to each well resulting in the desired N:P (ranging from 0-4). Peptides were assumed to have a purity of 50%, but actual peptide amount was unknown.
A SYBR-GOLD Dye Binding Assay was performed. A 96-well plate assay with sample volume of 150 μl per well. Final dsRNA concentration was 10 μg/ml in 10 mM hepes/5% dextrose at pH 7.4. Peptides were diluted into different working solutions such that equal volumes were added to reach different N/P ratios. For the addition procedure, dsRNA was first added (75 μl of 20 μg/ml), followed by […] of 2.5×SYBR Gold. Peptide ([…]) was then added to compete off the SYBR dye. Total volume was […]. Fluorescence was corrected from background of dye alone in buffer. SYBR-Gold ex/em was 495 nm/537 nm, read on Molecular Devices plate reader.

The subject of assay [2] is Cyclophilin B (PPIB). The assay is described as follows: In vitro assay for PPIB gene expression knockdown in A549 cells. In kind it is cell-based, human. The settings on record: for Knockdown (%) (vs dsRNA control): A549 cells, dsRNA DC4377 100 nM; for Knockdown (%) vs control / Knockdown (%) vs untransf: dsRNA DX4221 100 nM. The method, then:
Cyclophilin B (PPIB) gene knockdown measurements can be used as a primary activity-based in vitro assay for interfering RNA delivery formulations. Typically, the measurements were made as described below, with minor variations.
Cyclophilin B (PPIB) gene expression knockdown was measured in A549 human alveolar basal epithelial cells. For PPIB gene knockdown measurements, A549 cells were transfected with an interfering RNA formulation, total RNA prepared 24 hours after transfection, and PPIB mRNA assayed by RT-PCR. QRT-PCR of 36B4 (acidic ribosomal phosphoprotein PO) mRNA expression was performed for normalization.
A549 cells were seeded at 7,500 cells/well (96-well) and incubated overnight in medium. Confluency was about 50% at the time of transfection. Transfection complex was prepared by adding an interfering RNA to medium (OptiMEM™) and vortexing, separately adding a delivery formulation to medium (OptiMEM™) and vortexing, and finally mixing the interfering RNA in medium with the delivery formulation in medium and incubating 20 minutes at room temperature to make the transfection complex. The medium for incubated cells was replaced with fresh OptiMEM™ and transfection complex was added to each well. Cells were incubated for 5 hrs at 37° C. and 5% CO2, then complete medium was added (to a final fetal bovine serum concentration 10%) and incubation continued until 24 hours post-transfection.
For PPIB gene knockdown cells were lysed and RNA prepared (Invisorb RNA Cell HTS 96-Kit/C, Invitek, Berlin, or RNeasy 96 Kit, Qiagen). Quantitative RT-PCR was performed using One-Step qRT-PCR kit (Invitrogen) on a DNA Engine Opticon2 thermal cycler (BioRad).
Primers used for PPIB were: […]

[3] abbreviates: endosomolytic agent PN3033, binary N/P 5, final N/P 2.5.
The mark [4] stands for this setting: endosomolytic agent none, binary N/P 5.
Setting [5] is: endosomolytic agent PN3033, binary N/P 4, final N/P 2.5.
Setting [6] is: endosomolytic agent PN3033, binary N/P 4, final N/P 3.5.
Setting [7] is: endosomolytic agent PN3033, binary N/P 5, final N/P 3.5.
Setting [8] is: endosomolytic agent PN3033, binary N/P 5, final N/P 4.5.

For “RRRRRCCRRRRR (cysteine pairing not given here; also: dimer) [PN3499, dimer peptide containing a total of 10 arginines]”, the “binding to dsRNA (ability to displace SYBR-Gold dye)” value in assay [1] is listed as “strongest binding”.

Consider “WWHHKKRRCCRRKKHHWW [PN4110, triggered release peptide]”, for which the “Knockdown (%) (vs dsRNA control)” value in assay [2] (setting [3]) is reported as 65%; in assay [2] (endosomolytic agent PN3033, binary N/P 10, final N/P 5) it was 63%; in assay [2] (setting [4]), 0%. Moreover, the “Knockdown (%) vs control” value in assay [2] (setting [5]) was found to be 50%; in assay [2] (setting [6]) it was 41%; in assay [2] (setting [3]) it was 72%; in assay [2] (setting [7]), 74%; in assay [2] (setting [8]), 36%; in assay [2] (setting [4]) it was 14%. The “Knockdown (%) vs untransf” value in assay [2] (setting [5]) is listed as 55%; in assay [2] (setting [6]), 36%; in assay [2] (setting [3]), 70%; in assay [2] (setting [7]), 72%; in assay [2] (setting [8]) it was 40%; in assay [2] (setting [4]) it was 11%.
